Source: patent US20140140952A1, “D-Alanine Ester of Sp-Nucleoside Analog” (IDENIX PHARMACEUTICALS, INC., priority 2012, published 2014)

How the values were obtained:
HCV genotype 1b replicon = experiment: HCV replicon assay (Zluc luciferase reporter); type: cell-based; settings: Hepatitis C virus, Zluc cells, 72 hours
Protocol: Huh-7-derived cell line (Zluc) that harbors an HCV genotype 1b replicon and a luciferase reporter gene was grown in Dulbecco's Modified Eagle Medium (DMEM) supplemented with 10% fetal bovine serum, 2 mM GlutaMAX, 1% MEM nonessential amino acids, 100 IU/mL penicillin, 100 μg/mL streptomycin, and 0.5 mg/mL Geneticin® (G418). For dose response testing the cells were seeded in 96-well plates at 7.5×10^3 cells per well in a volume of 50 μL, and incubated at 37° C./5% CO2. Drug solutions were made up freshly in Huh-7 media as 2× stocks. […] were prepared from these stocks in DMEM without G418. At least three hours after Zluc cells were seeded, drug treatment was initiated by adding 50 μL of drug dilutions to the plates in duplicate. Final concentrations of drug ranged from 100 μM to 0.0000512 μM. Cells were then incubated at 37° C./5% CO2. […] For this, media was removed from the plates via gentle tapping. Fifty microliters of ONE-glo luciferase assay reagent was added to each well. The plates were shaken gently for 3 min at room temperature and luminescence was measured on a Victor^3 V 1420 multilabel counter (Perkin Elmer) with a 1 second read time using a 700 nm cut-off filter. The EC50 values were calculated from dose response curves from the resulting best-fit equations determined by Microsoft Excel and XLfit 5.2 software. […]

[1] = Cytotoxicity evaluation, CellTiter-Blue Cell Viability Assay; type: cell-based; settings: human, Zluc cells (Huh-7-derived cell line), read-out: HCV Replicon CC50
Protocol: For cytotoxicity evaluation, Zluc cells were treated with compound as described herein, and cell viability was monitored using the CellTiter-Blue Cell Viability Assay (Promega) by adding 20 μL of the assay solution to each well. The plates were then incubated at 37° C./5% CO2 for at least 3 hours. Fluorescence was detected in plates using excitation and emission wavelengths of 531 and 595 nm, respectively, in a Victor^3 V 1420 multilabel counter (Perkin Elmer) and CC50 values were determined using Microsoft Excel and XLfit 5.2 software.

[2] = Stability in human liver microsomes; type: in vitro ADME; settings: human liver microsomes 1.0 mg/mL, 10 μM, NADPH, 60 min
Protocol: (§1) Stability of test compounds was determined in subcellular fractions (microsomes and S9) of human liver and intestine in duplicate for each matrix. Pooled liver and intestinal microsomal, intestinal and liver S9 proteins (1.0 mg/mL), suspended in incubation buffer (100 mM potassium phosphate, pH 7.4, 5 mM MgCl2, and 0.1 mM EDTA), were preincubated for 5 min at 37° C. with 10 μM of a test compound from a 10 mM stock solution in DMSO (final DMSO concentration was 0.1%); the reaction was initiated by the addition of NADPH (3 mM final concentration). At specific times (0 and 60 min), 0.1 mL samples were taken and the reaction terminated by the addition of 4 volumes of stop solution (acetonitrile with 500 ng/mL carbutamide as an internal standard). The samples were vortexed for 30 sec and then centrifuged at 16,000 g for 10 min. Aliquots of supernatants (100 μL each) were transferred to 96 deep-well plates preloaded with 100 μL distilled water and analyzed after mixing by LC-MS/MS. The MS peak area ratio of the test compound versus the internal standard was calculated and percent unchanged test compound over 60 minutes was calculated using this ratio.

[3] = Stability in human intestinal microsomes; type: in vitro ADME; settings: human intestinal microsomes 1.0 mg/mL, 10 μM, NADPH, 60 min
Protocol: as §1

[4] = Plasma pharmacokinetics following a single oral dose in CD-1 mice; type: in vivo; settings: CD-1 male mice, single oral dose 10 mg/kg for I or 25 mg/kg for II in PEG 200; plasma 2′-methyl-2′-fluorouridine; 4, 12, 24 hours
Protocol: Plasma samples were analyzed for 2′-methyl-2′-fluorouridine (2′-Me-2′-F-U) by LC-MS/MS. The internal standard (IS) was D3-2′-F-2′-Me-G. For protein precipitation and extraction, each plasma sample (50 μL) was treated with 500 μL of 0.2% formic acid in acetonitrile and 20 μL of the internal standard working solution. After vortexing and centrifugation, 500 μL of the sample extracts were transferred to a new plate, dried under N2 at ˜28° C. and reconstituted with 75 μL of 0.2% FA in water. The extracts were chromatographed on an Aquasil C18 column using a gradient system of 0.2% formic acid in water and acetonitrile. The analytes were detected and quantified by tandem mass spectrometry in positive ion mode on an MDS Sciex API5000 equipped with a Turbo Ionspray® interface. The calibration range was 0.500 (LLOQ) to 200 ng/mL in mouse plasma.

[5] = Liver pharmacokinetics (triphosphate) following a single oral dose in CD-1 mice; type: in vivo; settings: CD-1 male mice, single oral dose 10 mg/kg for I or 25 mg/kg for II in PEG 200; liver 2′-methyl-2′-fluorouridine triphosphate; 4, 12, 24 hours
Protocol: Liver samples were analyzed for the active species 2′-methyl-2′-fluorouridine triphosphate (2′-Me-2′-F-U TP) by LC-MS/MS. […] Internal standard solution was added to the homogenate followed by neutralization with 20% ammonium hydroxide solution and addition of 500 μL 1% formic acid. The tissue samples were extracted by weak anion exchange solid phase extraction (SPE). Post extraction, the eluates were evaporated under nitrogen, followed by reconstitution before injection onto the LC-MS/MS system. […] The calibration range was 10 to 10000 pmol/mL in mouse liver homogenate (50 to 50000 pmol/g of mouse liver).

Question: What does the source list for `CC(C)OC(=O)[C@@H](C)N[P@@](=O)(OCC1O[C@@H](n2ccc(=O)[nH]c2=O)[C@](C)(F)[C@@H]1O)Oc1ccccc1` (single isomer, unassigned) [Compound (Ia)]?
Answer: EC50 (HCV genotype 1b replicon): > 10 µM; CC50 [1]: > 50 µM; Stability (expressed as percent remaining) HLM (1 hr) [2]: ++++ (60% < ++++ ≦ 80%); Stability (expressed as percent remaining) HIM (1 hr) [3]: +++++ (80% < +++++); Ms Plasma 2′-Me-2′-F-U AUC (pmol · hr/mL at 1 μmol/kg) [4]: +++ (400 < +++ ≦ 1000); Ms Liver 2′-Me-2′-F-U TP AUC (pmol · hr/g at 1 μmol/kg) [5]: +++++ (1600 < +++++)

Question: What does the source list for `CC(C)OC(=O)[C@@H](C)N[P@](=O)(OCC1O[C@@H](n2ccc(=O)[nH]c2=O)[C@](C)(F)[C@@H]1O)Oc1ccccc1` (single isomer, unassigned) [Compound (Ib), D-Alanine, N—((SP,2′R)-2′-deoxy-2′-fluoro-2′-methyl-P-phenyl-5′-uridylyl)-, 1-methylethyl ester]?
Answer: EC50 (HCV genotype 1b replicon): > 10 µM; CC50 [1]: > 50 µM; Stability (expressed as percent remaining) HLM (1 hr) [2]: +++++ (80% < +++++); Stability (expressed as percent remaining) HIM (1 hr) [3]: +++++ (80% < +++++); Ms Plasma 2′-Me-2′-F-U AUC (pmol · hr/mL at 1 μmol/kg) [4]: ++ (100 < ++ ≦ 400); Ms Liver 2′-Me-2′-F-U TP AUC (pmol · hr/g at 1 μmol/kg) [5]: +++ (400 < +++ ≦ 1000)
